# Experimental data: ChEMBL document CHEMBL1133831 (Bioorg Med Chem Lett, 2001)
# Columns and labels:
# [1] = target: T1, Muscarinic acetylcholine receptor M1 (Homo sapiens, UniProt P11229); test: Ability to displace [3H]N-methylscopolamine from Muscarinic acetylcholine receptor M1 expressed in CHO cells.; format: cell-based
# T1 sequence (P11229 whole entry): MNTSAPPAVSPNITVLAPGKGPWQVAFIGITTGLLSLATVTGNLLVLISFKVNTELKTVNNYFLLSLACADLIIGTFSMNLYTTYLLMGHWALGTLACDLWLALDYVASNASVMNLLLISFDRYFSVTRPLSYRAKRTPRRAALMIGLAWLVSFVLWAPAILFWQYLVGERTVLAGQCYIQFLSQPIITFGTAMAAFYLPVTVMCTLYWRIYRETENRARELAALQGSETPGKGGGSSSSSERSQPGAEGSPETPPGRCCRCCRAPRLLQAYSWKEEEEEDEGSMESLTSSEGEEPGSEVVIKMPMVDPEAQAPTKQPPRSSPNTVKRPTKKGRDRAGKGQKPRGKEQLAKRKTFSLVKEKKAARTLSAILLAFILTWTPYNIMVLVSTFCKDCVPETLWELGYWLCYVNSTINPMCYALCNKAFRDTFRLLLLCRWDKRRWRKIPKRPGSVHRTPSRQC
# [2] = target: T1, Muscarinic acetylcholine receptor M1; test: Ability to displace [3H]oxotremorine from Muscarinic acetylcholine receptor M1 expressed in CHO cells.; format: cell-based
smiles,measurement,setting,value
Clc1cc(CO/N=C/C2CN3CCC2C3)on1 (centres undefined),IC50,[1],14.9 µM
same,IC50,[2],0.044 µM
COc1cc(CO/N=C2\CN3CCC2C3)on1 (centres undefined),IC50,[1],40.5 µM
same,IC50,[2],0.131 µM
Clc1cc(CO/N=C/C2CN3CCC2CC3)on1 (centres undefined),IC50,[1],23.5 µM
same,IC50,[2],0.795 µM
Brc1cc(CO/N=C/C2CN3CCC2C3)on1 (centres undefined),IC50,[1],17.7 µM
same,IC50,[2],0.385 µM
N#Cc1cc(CO/N=C2\CN3CCC2CC3)on1,IC50,[1],8.7 µM
same,IC50,[2],0.081 µM
Clc1cc(CO/N=C2\CN3CCC2C3)on1 (centres undefined),IC50,[1],36.3 µM
same,IC50,[2],0.023 µM
Brc1cc(CO/N=C2\CN3CCC2C3)on1 (centres undefined),IC50,[1],48.8 µM
same,IC50,[2],0.079 µM
COc1cc(CO/N=C2\CN3CCC2CC3)on1,IC50,[1],35.6 µM
same,IC50,[2],0.362 µM
Brc1cc(CO/N=C/C2CN3CCC2CC3)on1 (centres undefined),IC50,[1],8.4 µM
same,IC50,[2],1.22 µM
Brc1cc(CO/N=C2\CN3CCC2CC3)on1,IC50,[1],11.5 µM
same,IC50,[2],0.072 µM
COc1cc(CO/N=C/C2CN3CCC2C3)on1 (centres undefined),IC50,[1],16.7 µM
same,IC50,[2],0.287 µM
COc1cc(CO/N=C/C2CN3CCC2CC3)on1 (centres undefined),IC50,[1],29.5 µM
same,IC50,[2],1.64 µM
N#Cc1cc(CO/N=C2\CN3CCC2C3)on1 (centres undefined),IC50,[1],32.5 µM
same,IC50,[2],0.082 µM
N#Cc1cc(CO/N=C/C2CN3CCC2C3)on1 (centres undefined),IC50,[1],189 µM
same,IC50,[2],1.86 µM
N#Cc1cc(CO/N=C/C2CN3CCC2CC3)on1 (centres undefined),IC50,[1],133 µM
same,IC50,[2],0.341 µM
Clc1cc(CO/N=C2\CN3CCC2CC3)on1,IC50,[1],13.8 µM
same,IC50,[2],0.057 µM
O=C1CCCN1CC#CCN1CCCC1 [OXOTREMORINE],IC50,[1],27.1 µM
same,IC50,[2],0.0023 µM
